According to patent publication US12390451B2, “Small molecule inhibitor of the JAK family of kinases” (Janssen Pharmaceutica NV, priority 2021, dated 2025):
Read-outs that look alike come from different tables or passages of the source.

Experiments:
JAK1/JAK3 = molecular target: T1, JAK1/JAK3 (Homo sapiens, UniProt P23458+P52333); experiment: IL-21-induced pSTAT-3 in human whole blood; format: cell-based; settings: mean
T1 construct: endogenous in cells; host or cells: human whole blood
Protocol: (§1) Compound of Formula I presents low levels of systemic exposure after oral administration. To understand the relationship between systemic exposure and target engagement in human studies, the inhibition of cytokine-induced pSTAT-3 in human whole blood was measured with such compound. In human whole blood, compound of Formula I in a concentration-dependent manner inhibited the JAK1, JAK2, JAK3, and Tyk2 homo- and heterodimers downstream of IFNα (JAK1/Tyk2), thrombopoietin (TPO) (JAK2/JAK2), and IL-21 (JAK1/JAK3) signaling.

JAK2/JAK2 = molecular target: T2, JAK2/JAK2 (Homo sapiens, UniProt O60674); experiment: TPO-induced pSTAT-3 in human whole blood; format: cell-based; settings: mean
T2 construct: endogenous in cells; host or cells: human whole blood
T2 sequence (O60674 whole entry): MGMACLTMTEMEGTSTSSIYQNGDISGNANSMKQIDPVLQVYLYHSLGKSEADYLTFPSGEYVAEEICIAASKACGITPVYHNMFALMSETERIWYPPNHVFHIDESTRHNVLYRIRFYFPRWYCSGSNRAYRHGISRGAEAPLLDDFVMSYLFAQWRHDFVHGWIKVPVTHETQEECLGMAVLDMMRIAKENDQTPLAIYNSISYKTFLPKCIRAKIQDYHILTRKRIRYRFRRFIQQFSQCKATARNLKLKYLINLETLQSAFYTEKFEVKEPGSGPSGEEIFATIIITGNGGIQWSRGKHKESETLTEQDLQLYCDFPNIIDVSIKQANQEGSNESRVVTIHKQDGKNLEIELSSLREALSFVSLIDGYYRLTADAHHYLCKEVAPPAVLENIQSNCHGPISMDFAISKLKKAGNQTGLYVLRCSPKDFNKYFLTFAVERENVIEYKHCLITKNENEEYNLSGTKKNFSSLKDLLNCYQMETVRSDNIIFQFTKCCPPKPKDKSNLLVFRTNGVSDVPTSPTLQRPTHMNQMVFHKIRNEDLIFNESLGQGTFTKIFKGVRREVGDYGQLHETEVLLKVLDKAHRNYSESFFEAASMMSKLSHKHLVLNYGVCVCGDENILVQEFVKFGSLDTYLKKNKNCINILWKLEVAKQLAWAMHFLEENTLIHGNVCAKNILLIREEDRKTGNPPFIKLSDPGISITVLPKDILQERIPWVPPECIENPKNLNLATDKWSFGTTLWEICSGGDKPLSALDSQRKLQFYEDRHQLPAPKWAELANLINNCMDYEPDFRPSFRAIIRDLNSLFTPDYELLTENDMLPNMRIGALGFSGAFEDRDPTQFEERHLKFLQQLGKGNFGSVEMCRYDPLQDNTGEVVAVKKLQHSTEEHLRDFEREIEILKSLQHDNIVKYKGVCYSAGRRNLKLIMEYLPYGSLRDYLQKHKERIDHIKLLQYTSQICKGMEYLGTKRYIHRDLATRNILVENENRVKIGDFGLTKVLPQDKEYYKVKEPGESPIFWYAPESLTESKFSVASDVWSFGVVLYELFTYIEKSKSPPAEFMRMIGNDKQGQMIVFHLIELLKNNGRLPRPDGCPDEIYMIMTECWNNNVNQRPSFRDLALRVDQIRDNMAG
T2 sequence (P40238 26-635 partner): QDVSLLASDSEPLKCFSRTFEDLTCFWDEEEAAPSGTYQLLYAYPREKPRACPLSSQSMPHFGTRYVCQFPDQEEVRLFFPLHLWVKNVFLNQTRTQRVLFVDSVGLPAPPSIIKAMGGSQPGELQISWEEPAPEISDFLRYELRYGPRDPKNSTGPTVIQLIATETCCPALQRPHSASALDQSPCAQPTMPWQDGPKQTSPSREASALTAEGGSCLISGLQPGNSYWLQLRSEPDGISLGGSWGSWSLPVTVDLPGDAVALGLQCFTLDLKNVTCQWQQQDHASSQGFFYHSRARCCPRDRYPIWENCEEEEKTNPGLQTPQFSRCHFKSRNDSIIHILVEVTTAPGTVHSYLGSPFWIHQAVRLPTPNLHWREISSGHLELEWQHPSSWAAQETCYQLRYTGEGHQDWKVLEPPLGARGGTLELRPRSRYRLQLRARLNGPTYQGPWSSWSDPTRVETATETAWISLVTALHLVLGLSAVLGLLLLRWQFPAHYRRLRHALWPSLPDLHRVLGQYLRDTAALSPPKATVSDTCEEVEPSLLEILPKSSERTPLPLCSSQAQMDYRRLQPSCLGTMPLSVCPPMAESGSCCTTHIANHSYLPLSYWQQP
Protocol: as §1

JAK1/Tyk2 = molecular target: T3, JAK1/Tyk2 (Mus musculus, UniProt P52332+Q9R117); experiment: IFNα-induced pSTAT-3 in murine whole blood; format: cell-based
T3 construct: endogenous in cells; host or cells: murine whole blood
Protocol: (§2) Mouse whole blood IC50 values were also generated to build an understanding of the relationship between systemic exposures and target engagement in murine models. In murine whole blood, the in vitro activity of compound of Formula I in the inhibition of IFNα-(JAK1/Tyk2), IL-21-(JAK1/3), and IL-12-(JAK2/Tyk2) induced pSTAT responses in murine whole blood was measured. […] No reliable IC50 could be reported for inhibition of IL-12 induced pSTAT-4 in murine whole blood.

[1] = Tissue distribution in rats after oral administration; format: in vivo, male Sprague-Dawley rats; settings: PO 25 mg/kg; for concentration at 0.5 h / concentration at 1 h / concentration at 2 h / concentration at 3 h / concentration at 5 h / concentration at 7 h / concentration at 24 h: male, Sprague-Dawley, rat
Protocol: Preliminary tissue distribution studies were conducted in male Sprague-Dawley rats (N=3/time point) at 0.5, 1, 2, 3, 5, 7, and 24 hours following oral administration of compound of Formula I at a dose of 25 mg/kg. The following tissues were harvested for compound concentration analysis: liver, kidney, brain, muscle, epididymis fat, duodenum, jejunum, ileum, colon (both lumen content and tissue), and plasma. The results of this study indicated low systemic exposure and high local concentrations (intestinal tract).

JAK1/3 = molecular target: T4, JAK1/3 (Mus musculus, UniProt P52332+Q62137); experiment: IL-21-induced pSTAT-3 in murine whole blood; format: cell-based
T4 construct: endogenous in cells; host or cells: murine whole blood
Protocol: as §2

[2] = 1 h, BLOQ 0.5 ng/mL of tissue homogenate
[3] = 2 h, BLOQ 0.5 ng/mL of tissue homogenate
[4] = 3 h, BLOQ 0.5 ng/mL of tissue homogenate
[5] = 5 h, BLOQ 0.5 ng/mL of tissue homogenate
[6] = 24 h, BLOQ 0.5 ng/mL of tissue homogenate

T1 sequence (P23458 whole entry): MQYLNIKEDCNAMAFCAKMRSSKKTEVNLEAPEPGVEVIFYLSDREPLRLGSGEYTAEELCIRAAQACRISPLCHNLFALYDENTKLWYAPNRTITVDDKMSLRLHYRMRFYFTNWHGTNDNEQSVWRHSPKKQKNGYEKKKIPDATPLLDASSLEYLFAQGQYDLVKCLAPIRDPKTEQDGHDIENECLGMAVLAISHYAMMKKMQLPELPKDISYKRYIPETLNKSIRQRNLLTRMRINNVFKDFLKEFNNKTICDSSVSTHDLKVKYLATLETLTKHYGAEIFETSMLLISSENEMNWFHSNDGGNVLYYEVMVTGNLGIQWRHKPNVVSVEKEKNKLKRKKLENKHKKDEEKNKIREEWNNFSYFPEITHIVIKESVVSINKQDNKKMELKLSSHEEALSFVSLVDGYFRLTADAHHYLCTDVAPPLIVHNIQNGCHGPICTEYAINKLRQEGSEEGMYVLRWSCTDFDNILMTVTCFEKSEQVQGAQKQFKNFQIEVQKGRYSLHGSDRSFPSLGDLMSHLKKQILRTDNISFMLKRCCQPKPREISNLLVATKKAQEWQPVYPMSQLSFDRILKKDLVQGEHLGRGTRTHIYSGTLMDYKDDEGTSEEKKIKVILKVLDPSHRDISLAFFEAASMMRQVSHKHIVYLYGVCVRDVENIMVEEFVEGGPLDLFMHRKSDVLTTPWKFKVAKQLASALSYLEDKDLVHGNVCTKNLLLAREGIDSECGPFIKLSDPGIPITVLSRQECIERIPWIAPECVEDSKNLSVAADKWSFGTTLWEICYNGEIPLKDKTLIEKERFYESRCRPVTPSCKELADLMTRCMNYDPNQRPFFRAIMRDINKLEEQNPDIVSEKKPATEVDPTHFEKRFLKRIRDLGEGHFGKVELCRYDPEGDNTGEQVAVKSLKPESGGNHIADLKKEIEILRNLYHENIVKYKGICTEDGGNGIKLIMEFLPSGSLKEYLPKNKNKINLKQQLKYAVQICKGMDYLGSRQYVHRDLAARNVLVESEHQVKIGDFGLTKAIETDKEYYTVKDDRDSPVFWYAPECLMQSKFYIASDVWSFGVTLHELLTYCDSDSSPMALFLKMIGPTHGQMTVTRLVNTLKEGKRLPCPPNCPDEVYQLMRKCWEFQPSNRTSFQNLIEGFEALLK
T1 sequence (P52333 whole entry): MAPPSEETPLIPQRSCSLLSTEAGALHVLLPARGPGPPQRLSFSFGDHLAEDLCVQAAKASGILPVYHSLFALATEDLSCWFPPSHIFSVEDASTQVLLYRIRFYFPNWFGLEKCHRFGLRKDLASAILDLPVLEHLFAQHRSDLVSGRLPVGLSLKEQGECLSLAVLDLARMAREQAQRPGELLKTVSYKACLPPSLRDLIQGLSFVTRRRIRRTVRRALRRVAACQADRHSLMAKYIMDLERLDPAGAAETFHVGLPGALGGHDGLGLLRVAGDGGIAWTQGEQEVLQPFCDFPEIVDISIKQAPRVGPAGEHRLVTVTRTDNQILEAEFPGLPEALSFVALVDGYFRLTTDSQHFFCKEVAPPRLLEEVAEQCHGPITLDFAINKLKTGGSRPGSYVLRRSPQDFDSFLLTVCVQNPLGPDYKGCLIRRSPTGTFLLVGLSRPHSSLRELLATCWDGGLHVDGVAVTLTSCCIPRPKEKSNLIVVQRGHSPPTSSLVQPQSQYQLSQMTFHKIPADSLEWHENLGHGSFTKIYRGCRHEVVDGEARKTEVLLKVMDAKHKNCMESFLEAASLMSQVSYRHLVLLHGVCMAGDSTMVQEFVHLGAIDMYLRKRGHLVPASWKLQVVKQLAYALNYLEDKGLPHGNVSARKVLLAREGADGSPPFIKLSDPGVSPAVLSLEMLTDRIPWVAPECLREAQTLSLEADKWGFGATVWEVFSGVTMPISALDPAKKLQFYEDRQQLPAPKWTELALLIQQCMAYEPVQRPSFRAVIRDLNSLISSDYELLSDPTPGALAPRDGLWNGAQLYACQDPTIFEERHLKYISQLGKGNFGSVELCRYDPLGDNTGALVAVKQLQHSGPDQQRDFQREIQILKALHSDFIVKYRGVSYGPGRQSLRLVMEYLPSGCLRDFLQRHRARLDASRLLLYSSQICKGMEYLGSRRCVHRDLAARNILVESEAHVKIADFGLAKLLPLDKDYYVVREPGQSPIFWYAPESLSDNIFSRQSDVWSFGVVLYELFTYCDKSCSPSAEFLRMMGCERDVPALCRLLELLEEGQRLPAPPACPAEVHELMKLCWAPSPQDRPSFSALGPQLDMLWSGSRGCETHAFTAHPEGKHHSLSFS
T1 sequence (Q9HBE5 20-538 partner): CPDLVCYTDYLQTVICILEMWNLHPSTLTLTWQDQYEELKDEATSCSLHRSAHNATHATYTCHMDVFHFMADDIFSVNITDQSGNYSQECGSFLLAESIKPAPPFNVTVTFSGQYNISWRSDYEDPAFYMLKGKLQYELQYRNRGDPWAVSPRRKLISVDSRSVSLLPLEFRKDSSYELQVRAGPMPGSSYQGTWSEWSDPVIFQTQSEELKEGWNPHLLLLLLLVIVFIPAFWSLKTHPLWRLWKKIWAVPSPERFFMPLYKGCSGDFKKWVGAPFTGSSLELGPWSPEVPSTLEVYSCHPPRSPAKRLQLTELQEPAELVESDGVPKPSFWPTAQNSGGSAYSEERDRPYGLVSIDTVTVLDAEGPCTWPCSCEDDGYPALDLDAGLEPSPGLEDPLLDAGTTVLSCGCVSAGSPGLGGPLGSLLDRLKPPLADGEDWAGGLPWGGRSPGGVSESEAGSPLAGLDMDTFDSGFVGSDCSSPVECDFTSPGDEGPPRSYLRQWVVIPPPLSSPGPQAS
T1 sequence (P31785 23-369 partner): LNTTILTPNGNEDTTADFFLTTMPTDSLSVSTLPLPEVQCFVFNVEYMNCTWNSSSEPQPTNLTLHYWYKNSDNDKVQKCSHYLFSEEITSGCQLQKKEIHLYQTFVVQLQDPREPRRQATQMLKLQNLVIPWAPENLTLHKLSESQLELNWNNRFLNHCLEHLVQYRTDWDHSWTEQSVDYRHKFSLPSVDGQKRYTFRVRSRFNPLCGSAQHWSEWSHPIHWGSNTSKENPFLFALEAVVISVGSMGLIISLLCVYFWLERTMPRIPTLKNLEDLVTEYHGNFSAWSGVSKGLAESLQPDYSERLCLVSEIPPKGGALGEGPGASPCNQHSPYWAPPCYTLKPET

CC(C)(O)CNC(=O)Cc1nc2cnc3[nH]ccc3c2n1[C@H]1CC[C@H](CC#N)CC1 [Compound of Formula I, 2-(1-((1r,4r)-4-(Cyanomethyl)cyclohexyl)-1,6-dihydroimidazo[4,5-d]pyrrolo[2,3-b]pyridin-2-yl)-N-(2-hydroxy-2-methylpropyl)acetamide]
IC50 (JAK1/JAK3): 579 nM | IC50 (JAK2/JAK2): 490 nM | IC50 (JAK1/Tyk2): 299 nM | Brain concentration [1, 2]: BLOQ^(a) | Fat concentration [1, 2]: BLOQ^(a) | Kidney concentration ([1]; 1 h, SD NA): 42.2 ng/g | Plasma concentration ([1]; 1 h, SD NA): 5.8 ng/mL | Brain concentration [1, 3]: BLOQ^(a) | Fat concentration [1, 3]: BLOQ^(a) | Muscle concentration [1, 3]: BLOQ^(a) | Brain concentration [1, 4]: BLOQ^(a) | Muscle concentration [1, 4]: BLOQ^(a) | Ileum Content concentration ([1]; 3 h, average, N = 3): 1,402,241 ng/mL | Brain concentration [1, 5]: BLOQ^(a) | Fat concentration [1, 5]: BLOQ^(a) | Muscle concentration [1, 5]: BLOQ^(a) | Brain concentration ([1]; 7 h, BLOQ 0.5 ng/mL of tissue homogenate): BLOQ^(a) | Plasma concentration ([1]; 24 h, BLOQ 0.5 ng/mL): BLOQ^(a) | Brain concentration [1, 6]: BLOQ^(a) | Fat concentration [1, 6]: BLOQ^(a) | Kidney concentration [1, 6]: BLOQ^(a) | Muscle concentration [1, 6]: BLOQ^(a) | concentration at 0.5 h ([1]; brain, average ±SD, read-out: Brain concentration): 3.5 ± 3.1 ng/g | concentration at 0.5 h ([1]; colon lumen content, average, N = 3, read-out: Colon Content concentration): 167 ng/mL | concentration at 1 h ([1]; colon lumen content, 1 h, average, N = 3, read-out: Colon Content concentration): 135 ng/mL | concentration at 2 h ([1]; colon lumen content, 2 h, average, N = 3, read-out: Colon Content concentration): 19100 ng/mL | concentration at 3 h ([1]; colon lumen content, 3 h, average, N = 3, read-out: Colon Content concentration): 304000 ng/mL | concentration at 5 h ([1]; colon lumen content, 5 h, average, N = 3, read-out: Colon Content concentration): 830000 ng/mL | concentration at 7 h ([1]; colon lumen content, 7 h, average, N = 3, read-out: Colon Content concentration): 834000 ng/mL | concentration at 24 h ([1]; colon lumen content, 24 h, average, N = 3, read-out: Colon Content concentration): 7590 ng/mL | concentration at 0.5 h ([1]; colon tissue, average, N = 3, read-out: Colon Tissue concentration): 946 ng/g | concentration at 1 h ([1]; colon tissue, 1 h, average, N = 3, read-out: Colon Tissue concentration): 383 ng/g | concentration at 2 h ([1]; colon tissue, 2 h, average, N = 3, read-out: Colon Tissue concentration): 2190 ng/g | concentration at 3 h ([1]; colon tissue, 3 h, average, N = 3, read-out: Colon Tissue concentration): 12400 ng/g | concentration at 5 h ([1]; colon tissue, 5 h, average, N = 3, read-out: Colon Tissue concentration): 33500 ng/g | concentration at 7 h ([1]; colon tissue, 7 h, average, N = 3, read-out: Colon Tissue concentration): 36700 ng/g | concentration at 24 h ([1]; colon tissue, 24 h, average, N = 3, read-out: Colon Tissue concentration): 353 ng/g | concentration at 0.5 h ([1]; duodenum lumen content, average, N = 3, read-out: Duod. Content concentration): 329000 ng/mL | concentration at 1 h ([1]; duodenum lumen content, 1 h, average, N = 3, read-out: Duod. Content concentration): 45500 ng/mL | concentration at 2 h ([1]; duodenum lumen content, 2 h, average, N = 3, read-out: Duod. Content concentration): 20200 ng/mL | concentration at 3 h ([1]; duodenum lumen content, 3 h, average, N = 3, read-out: Duod. Content concentration): 15800 ng/mL | concentration at 5 h ([1]; duodenum lumen content, 5 h, average, N = 3, read-out: Duod. Content concentration): 4470 ng/mL | concentration at 7 h ([1]; duodenum lumen content, 7 h, average, N = 3, read-out: Duod. Content concentration): 2630 ng/mL | concentration at 24 h ([1]; duodenum lumen content, 24 h, average, N = 3, read-out: Duod. Content concentration): 60 ng/mL | concentration at 0.5 h ([1]; duodenum tissue, average, N = 3, read-out: Duod. Tissue concentration): 35200 ng/g | concentration at 1 h ([1]; duodenum tissue, 1 h, average, N = 3, read-out: Duod. Tissue concentration): 16700 ng/g | concentration at 2 h ([1]; duodenum tissue, 2 h, average, N = 3, read-out: Duod. Tissue concentration): 3170 ng/g | concentration at 3 h ([1]; duodenum tissue, 3 h, average, N = 3, read-out: Duod. Tissue concentration): 3840 ng/g | concentration at 5 h ([1]; duodenum tissue, 5 h, average, N = 3, read-out: Duod. Tissue concentration): 1100 ng/g | concentration at 7 h ([1]; duodenum tissue, 7 h, average, N = 3, read-out: Duod. Tissue concentration): 366 ng/g | concentration at 24 h ([1]; duodenum tissue, 24 h, average, N = 3, read-out: Duod. Tissue concentration): 17 ng/g | concentration at 0.5 h ([1]; ileum lumen content, average, N = 3, read-out: Ileum Content concentration): 644 ng/mL | concentration at 1 h ([1]; ileum lumen content, 1 h, average, N = 3, read-out: Ileum Content concentration): 496 ng/mL | concentration at 2 h ([1]; ileum lumen content, 2 h, average, N = 3, read-out: Ileum Content concentration): 725000 ng/mL | concentration at 5 h ([1]; ileum lumen content, 5 h, average, N = 3, read-out: Ileum Content concentration): 597000 ng/mL | concentration at 7 h ([1]; ileum lumen content, 7 h, average, N = 3, read-out: Ileum Content concentration): 133000 ng/mL | concentration at 24 h ([1]; ileum lumen content, 24 h, average, N = 3, read-out: Ileum Content concentration): 893 ng/mL | concentration at 0.5 h ([1]; ileum tissue, average, N = 3, read-out: Ileum Tissue concentration): 1340 ng/g | concentration at 1 h ([1]; ileum tissue, 1 h, average, N = 3, read-out: Ileum Tissue concentration): 252 ng/g | concentration at 2 h ([1]; ileum tissue, 2 h, average, N = 3, read-out: Ileum Tissue concentration): 8950 ng/g | concentration at 3 h ([1]; ileum tissue, 3 h, average, N = 3, read-out: Ileum Tissue concentration): 50800 ng/g | concentration at 5 h ([1]; ileum tissue, 5 h, average, N = 3, read-out: Ileum Tissue concentration): 18000 ng/g | concentration at 7 h ([1]; ileum tissue, 7 h, average, N = 3, read-out: Ileum Tissue concentration): 6490 ng/g | concentration at 0.5 h ([1]; jejunum lumen content, average, N = 3, read-out: Jejunum Content concentration): 533000 ng/mL | concentration at 1 h ([1]; jejunum lumen content, 1 h, average, N = 3, read-out: Jejunum Content concentration): 249000 ng/mL | concentration at 2 h ([1]; jejunum lumen content, 2 h, average, N = 3, read-out: Jejunum Content concentration): 90700 ng/mL | concentration at 3 h ([1]; jejunum lumen content, 3 h, average, N = 3, read-out: Jejunum Content concentration): 48000 ng/mL | concentration at 5 h ([1]; jejunum lumen content, 5 h, average, N = 3, read-out: Jejunum Content concentration): 26300 ng/mL | concentration at 7 h ([1]; jejunum lumen content, 7 h, average, N = 3, read-out: Jejunum Content concentration): 10300 ng/mL | concentration at 24 h ([1]; jejunum lumen content, 24 h, average, N = 3, read-out: Jejunum Content concentration): 228 ng/mL | concentration at 0.5 h ([1]; jejunum tissue, average, N = 3, read-out: Jejunum Tissue concentration): 47200 ng/g | concentration at 1 h ([1]; jejunum tissue, 1 h, average, N = 3, read-out: Jejunum Tissue concentration): 23500 ng/g | concentration at 2 h ([1]; jejunum tissue, 2 h, average, N = 3, read-out: Jejunum Tissue concentration): 8230 ng/g | concentration at 3 h ([1]; jejunum tissue, 3 h, average, N = 3, read-out: Jejunum Tissue concentration): 3980 ng/g | concentration at 5 h ([1]; jejunum tissue, 5 h, average, N = 3, read-out: Jejunum Tissue concentration): 1810 ng/g | concentration at 7 h ([1]; jejunum tissue, 7 h, average, N = 3, read-out: Jejunum Tissue concentration): 788 ng/g | concentration at 24 h ([1]; jejunum tissue, 24 h, average, N = 3, read-out: Jejunum Tissue concentration): 27 ng/g | concentration at 0.5 h ([1]; kidney, average ±SD, read-out: Kidney concentration): 57.9 ± 26.2 ng/g | concentration at 2 h ([1]; kidney, 2 h, average ±SD, read-out: Kidney concentration): 24.3 ± 6.6 ng/g | concentration at 3 h ([1]; kidney, 3 h, average ±SD, read-out: Kidney concentration): 30 ± 9.4 ng/g | concentration at 5 h ([1]; kidney, 5 h, average ±SD, read-out: Kidney concentration): 12.9 ± 3.6 ng/g | concentration at 7 h ([1]; kidney, 7 h, average ±SD, read-out: Kidney concentration): 19.9 ± 7.8 ng/g | concentration at 0.5 h ([1]; liver, average ±SD, read-out: Liver concentration): 158 ± 104 ng/g | concentration at 1 h ([1]; liver, 1 h, SD NA, read-out: Liver concentration): 70.4 ng/g | concentration at 2 h ([1]; liver, 2 h, average ±SD, read-out: Liver concentration): 49.9 ± 17.5 ng/g | concentration at 3 h ([1]; liver, 3 h, average ±SD, read-out: Liver concentration): 29.6 ± 14.5 ng/g | concentration at 5 h ([1]; liver, 5 h, average ±SD, read-out: Liver concentration): 18.7 ± 3 ng/g | concentration at 7 h ([1]; liver, 7 h, average ±SD, read-out: Liver concentration): 20.7 ± 3 ng/g | concentration at 0.5 h ([1]; muscle, average ±SD, read-out: Muscle concentration): 16.7 ± 15 ng/g | concentration at 0.5 h ([1]; plasma, average ±SD, read-out: Plasma concentration): 6.3 ± 1.1 ng/mL | concentration at 2 h ([1]; plasma, 2 h, average ±SD, read-out: Plasma concentration): 3.7 ± 0.9 ng/mL | concentration at 3 h ([1]; plasma, 3 h, average ±SD, read-out: Plasma concentration): 3.1 ± 1.1 ng/mL | concentration at 5 h ([1]; plasma, 5 h, average ±SD, read-out: Plasma concentration): 1.5 ± 0.7 ng/mL | concentration at 7 h ([1]; plasma, 7 h, average ±SD, read-out: Plasma concentration): 2.1 ± 0.5 ng/mL | IC50 (JAK1/3): 415 nM
